In brackets after ≈: the same amount, converted by molar mass. Like-named read-outs stand apart in the source and are kept apart here.
How the values were obtained:
E. faecalis VSE 1 = assay: MIC, broth microdilution, vancomycin-sensitive E. faecalis (VSE 1); format: cell-based, Enterococcus faecalis
Method in brief: (§1)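 Broth microdilution per CLSI; controls = ultrapure water, non-inoculated broth. One set: + vancomycin 10 μM final alongside test analogue/control drug.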

E. faecalis VRE 6 = assay: MIC, broth microdilution, vancomycin-resistant E. faecalis VRE 6 (VanA); format: cell-based, Enterococcus faecalis
Method in brief: as §1

E. faecalis VRE 53 = assay: MIC, broth microdilution, vancomycin-resistant E. faecalis VRE 53 (VanA); format: cell-based, Enterococcus faecalis
Method in brief: as §1

E. faecalis VRE 29 = assay: MIC, broth microdilution, vancomycin-resistant E. faecalis VRE 29 (VanA); format: cell-based, Enterococcus faecalis
Method in brief: as §1

E. faecalis VRE 37 = assay: MIC, broth microdilution, vancomycin-resistant E. faecalis VRE 37 (VanA); format: cell-based, Enterococcus faecalis
Method in brief: as §1

[1] = test system: Murine leukemia (L1210) cells; assay: Cytostatic activity, L1210 cell proliferation; format: cell-based; details: mean ± SD of three experiments; highest concentration tested 250 µM; 2 days; read-out: Toxicity (IC50) L1210
Method in brief: (§2)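 Suspensions (300,000–500,000 cells/mL) combined with equal volumes of diluted compound; 37°C; L1210 2 d / CEM 3 d / HeLa 4 d; counted by Coulter counter; IC50 vs untreated wells.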

[2] = test system: human T-lymphocyte (CEM) cells; assay: Cytostatic activity, CEM cell proliferation; format: cell-based; details: mean ± SD of three experiments; highest concentration tested 250 µM; 3 days; read-out: Toxicity (IC50) CEM
Method in brief: as §2

[3] = test system: human cervix carcinoma (HeLa) cells; assay: Cytostatic activity, HeLa cell proliferation; format: cell-based; details: mean ± SD of three experiments; highest concentration tested 250 µM; 4 days; read-out: Toxicity (IC50) HeLa
Method in brief: as §2

[4] = test system: L1210, CEM and HeLa cell lines; assay: Cytostatic activity, average or summary over L1210, CEM and HeLa; format: cell-based
Method in brief: as §2

[5] = test system: S. aureus VSSA (ATCC 6538); assay: MIC, broth microdilution, vancomycin-sensitive S. aureus (VSSA/MSSA, ATCC 6538); format: cell-based, Staphylococcus aureus
Method in brief: as §1

S. aureus VISA/HIP5827 = assay: MIC, broth microdilution, vancomycin-intermediate S. aureus VISA HIP5827; format: cell-based, Staphylococcus aureus
Method in brief: as §1

S. aureus VRSA = assay: MIC, broth microdilution, vancomycin-resistant S. aureus (VRSA); format: cell-based, Staphylococcus aureus
Method in brief: as §1

MRSA KS2 = assay: MIC, broth microdilution, MRSA KS2; format: cell-based, Staphylococcus aureus
Method in brief: as §1

MRSA KS6 = assay: MIC, broth microdilution, MRSA KS6; format: cell-based, Staphylococcus aureus
Method in brief: as §1

MRSA KS89 = assay: MIC, broth microdilution, MRSA KS89; format: cell-based, Staphylococcus aureus
Method in brief: as §1

MRSA KS1 = assay: MIC, broth microdilution, MRSA KS1; format: cell-based, Staphylococcus aureus
Method in brief: as §1

33 clinical VRE isolates = assay: MIC against a set of 33 clinical VRE isolates (range, MIC50, TI); format: cell-based, Enterococcus faecalis
Experimental: (§3) The minimum inhibitory concentration (MIC) was determined using the broth microdilution method according to the antimicrobial susceptibility testing standards of the clinical and laboratory standards institute ([Clinical and Laboratory Standards Institute [CLSI], 2012]). Ultrapure water and non-inoculated broth were used as controls. In one case, a final concentration of 10 μM vancomycin was included with the vancomycin analog or control antibiotic.

[6] = test system: 24 clinical MRSA isolates; assay: MIC against a set of 24 clinical MRSA isolates (range, MIC50, TI); format: cell-based, Staphylococcus aureus
Experimental: as §3

[7] = test system: Clostridium difficile ATJ ribotype 014/20; assay: MIC, plate drop assay, C. difficile ATJ ribotype 014/20; format: cell-based; details: C. difficile ATJ ribotype 014/20
Method in brief: (§4)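 Twofold dilution series of test compounds were spotted onto C. difficile lawns in 0.4% BHI agar containing added calcium and magnesium salts. After overnight anaerobic incubation at 37°C, growth inhibition was scored by spot clearing; triplicate runs, ultrapure water negative control.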

[8] = test system: Clostridium difficile AIU ribotype 027; assay: MIC, plate drop assay, C. difficile AIU ribotype 027; format: cell-based; details: C. difficile AIU ribotype 027
Method in brief: as §4

VE 148 (VanB) = assay: MIC, VanB-type VRE strain VE 148; format: cell-based, Enterococcus; details: VE 148, VanB; read-out: MIC
Experimental: as §3

VE 149 (VanB) = assay: MIC, VanB-type VRE strain VE 149; format: cell-based, Enterococcus; details: VE 149, VanB; read-out: MIC
Experimental: as §3

VE 150 (VanB) = assay: MIC, VanB-type VRE strain VE 150; format: cell-based, Enterococcus; details: VE 150, VanB; read-out: MIC
Experimental: as §3

VE 152 (VanB) = assay: MIC, VanB-type VRE strain VE 152; format: cell-based, Enterococcus; details: VE 152, VanB; read-out: MIC
Experimental: as §3

VE 157 (VanB) = assay: MIC, VanB-type VRE strain VE 157; format: cell-based, Enterococcus; details: VE 157, VanB; read-out: MIC
Experimental: as §3

VE 82 (VanC1) = assay: MIC, VanC1-type VRE strain VE 82; format: cell-based, Enterococcus gallinarum; details: VE 82, VanC1; read-out: MIC
Experimental: as §3

MRSA = assay: Minimum bactericidal concentration against MRSA; format: cell-based, Staphylococcus aureus
Experimental: Plates were incubated overnight at 37°C and colony growth was inspected.

CCCCc1ccc(NC(=O)CNC(=O)[C@H]2NC(=O)[C@H]3NC(=O)[C@H](NC(=O)[C@@H]4NC(=O)[C@H](CC(N)=O)NC(=O)[C@H](NC(=O)[C@@H](CC(C)C)NC)[C@H](O)c5ccc(c(Cl)c5)Oc5cc4cc(c5O[C@@H]4O[C@H](CO)[C@@H](O)[C@H](O)[C@H]4O[C@H]4C[C@](C)(N)[C@H](O)[C@H](C)O4)Oc4ccc(cc4Cl)[C@H]3O)c3ccc(O)c(c3)-c3c(O)cc(O)cc32)cc1 [Vanc-39]
MIC (E. faecalis VSE 1; Enterococcus faecalis VSE 1 (vancomycin-sensitive), read-out: MIC): 0.20 µM (≈ 0.328 µg/mL) | MIC-fold improvement vs. vancomycin (E. faecalis VSE 1; VSE 1, ratio of MIC of vancomycin and MIC of analogue): 8 | MIC (E. faecalis VRE 6; Enterococcus faecalis VRE 6 (vancomycin-resistant), read-out: MIC): 3.13 µM (≈ 5.13 µg/mL) | MIC-fold improvement vs. vancomycin (E. faecalis VRE 6; VRE 6, ratio of MIC of vancomycin and MIC of analogue): 64 | MIC (E. faecalis VRE 53; Enterococcus faecalis VRE 53 (vancomycin-resistant), read-out: MIC): 50 µM (≈ 81.9 µg/mL) | MIC-fold improvement vs. vancomycin (E. faecalis VRE 53; VRE 53, ratio of MIC of vancomycin and MIC of analogue): 8 | MIC (E. faecalis VRE 29; Enterococcus faecalis VRE 29 (vancomycin-resistant), read-out: MIC): 6.25 µM (≈ 10.2 µg/mL) | MIC-fold improvement vs. vancomycin (E. faecalis VRE 29; VRE 29, ratio of MIC of vancomycin and MIC of analogue): 64 | MIC (E. faecalis VRE 37; Enterococcus faecalis VRE 37 (vancomycin-resistant), read-out: MIC): 6.25 µM (≈ 10.2 µg/mL) | MIC-fold improvement vs. vancomycin (E. faecalis VRE 37; VRE 37, ratio of MIC of vancomycin and MIC of analogue): 64 | IC50 [1]: > 250 µM | IC50 [2]: > 250 µM | IC50 [3]: > 250 µM | IC50 ([4]; average IC50 used for TI in Table S5, >250 entered as 250, read-out: IC50): 250 µM | IC50 ([4]; average of L1210, CEM and HeLa, read-out: Toxicity (IC50) Average): > 250 µM | IC50 ([4]; summary over the three cell lines, read-out: IC50 (L1210, CEM, HeLa), depending on the cell line used): > 250 µM | MIC ([5]; Staphylococcus aureus VSSA, read-out: MIC): 0.05 µM (≈ 0.0819 µg/mL) | MIC-fold improvement vs. vancomycin ([5]; VSSA, ratio of MIC of vancomycin and MIC of analogue): 16 | MIC (S. aureus VISA/HIP5827; Staphylococcus aureus VISA/HIP5827, read-out: MIC): 0.39 µM (≈ 0.639 µg/mL) | MIC-fold improvement vs. vancomycin (S. aureus VISA/HIP5827; VISA/HIP5827, ratio of MIC of vancomycin and MIC of analogue): 16 | MIC (S. aureus VRSA; Staphylococcus aureus VRSA, read-out: MIC): 0.78 µM (≈ 1.28 µg/mL) | MIC-fold improvement vs. vancomycin (S. aureus VRSA; VRSA, ratio of MIC of vancomycin and MIC of analogue): 128 | MIC-fold improvement vs. vancomycin (MRSA KS2; MRSA KS2, ratio of MIC of vancomycin and MIC of analogue): 4 | MIC (MRSA KS2; Staphylococcus aureus MRSA KS2, read-out: MIC): 0.20 µM (≈ 0.328 µg/mL) | MIC-fold improvement vs. vancomycin (MRSA KS6; MRSA KS6, ratio of MIC of vancomycin and MIC of analogue): 4 | MIC (MRSA KS6; Staphylococcus aureus MRSA KS6, read-out: MIC): 0.20 µM (≈ 0.328 µg/mL) | MIC-fold improvement vs. vancomycin (MRSA KS89; MRSA KS8, ratio of MIC of vancomycin and MIC of analogue): 4 | MIC (MRSA KS89; Staphylococcus aureus MRSA KS8, read-out: MIC): 0.20 µM (≈ 0.328 µg/mL) | MIC-fold improvement vs. vancomycin (MRSA KS1; MRSA KS1, ratio of MIC of vancomycin and MIC of analogue): 4 | MIC (MRSA KS1; Staphylococcus aureus MRSA KS1, read-out: MIC): 0.20 µM (≈ 0.328 µg/mL) | MIC Range (33 clinical VRE isolates; 33 clinical VRE isolates): 0.78 to 12.5 µM | TI (IC50/MIC50) (33 clinical VRE isolates; in vitro therapeutic index, VRE): 80 | MIC50 (33 clinical VRE isolates; median MIC, 33 clinical VRE isolates, read-out: MIC50): 3.13 µM (≈ 5.13 µg/mL) | TI (IC50/MIC50) ([6]; in vitro therapeutic index, MRSA): 641 | MIC50 ([6]; median MIC, 24 clinical MRSA isolates, read-out: MIC50): 0.39 µM (≈ 0.639 µg/mL) | MIC-fold improvement vs. vancomycin [7]: 22 | MIC-fold improvement vs. vancomycin [8]: 14 | MIC (VE 148 (VanB)): 3.13 µM (≈ 5.13 µg/mL) | MIC (VE 149 (VanB)): 0.78 µM (≈ 1.28 µg/mL) | MIC (VE 150 (VanB)): 1.56 µM (≈ 2.55 µg/mL) | MIC (VE 152 (VanB)): 0.78 µM (≈ 1.28 µg/mL) | MIC (VE 157 (VanB)): 0.78 µM (≈ 1.28 µg/mL) | MIC (VE 82 (VanC1)): 0.78 µM (≈ 1.28 µg/mL) | MBC relative to MIC (MRSA): MBC equaling their MIC values

— publication PMC6001238, “Iterative Chemical Engineering of Vancomycin Leads to Novel Vancomycin Analogs With a High in Vitro Therapeutic Index” (Frontiers in Microbiology, 2018)
